Data taken from the NIST ThermoML archive (doi:10.1021/je900284z).
Values joined by “and” are separate entries in the source; they are usually repeats but may differ in a detail not shown here. Equal values may be shown once.

Conditions: Liquid; for viscosity: Falling or rolling sphere viscometry; for mass density: 101.33 kPa

CC(C)CCCCCCCOC(=O)c1ccccc1C(=O)OCCCCCCCC(C)C
Conditions | viscosity
273.15 K, 100 kPa | 625.8 mPa·s
273.15 K, 9900 kPa | 845.1 mPa·s
298.15 K, 100 kPa | 87.41 mPa·s and 87.37 mPa·s
298.15 K, 9600 kPa | 110.7 mPa·s
298.15 K, 20600 kPa | 145 mPa·s
298.15 K, 20700 kPa | 145.5 mPa·s
298.15 K, 30100 kPa | 182.5 mPa·s
298.15 K, 30300 kPa | 183 mPa·s
298.15 K, 40700 kPa | 234.2 mPa·s
298.15 K, 50200 kPa | 289.4 mPa·s
298.15 K, 59200 kPa | 356.2 mPa·s
298.15 K, 71600 kPa | 465.4 mPa·s
298.15 K, 82000 kPa | 589 mPa·s
298.15 K, 83300 kPa | 608.4 mPa·s
313.15 K, 100 kPa | 37.71 mPa·s
313.15 K, 10900 kPa | 47.29 mPa·s
313.15 K, 21200 kPa | 58.95 mPa·s
313.15 K, 30600 kPa | 71.54 mPa·s
313.15 K, 40900 kPa | 88.99 mPa·s
313.15 K, 51600 kPa | 109.1 mPa·s
313.15 K, 62400 kPa | 136.7 mPa·s
313.15 K, 71300 kPa | 160.8 mPa·s
313.15 K, 80300 kPa | 192.4 mPa·s
313.15 K, 89800 kPa | 234.4 mPa·s
338.15 K, 100 kPa | 13.37 mPa·s [middle of 4 runs]
338.15 K, 9700 kPa | 15.54 mPa·s
338.15 K, 10700 kPa | 16.28 mPa·s
338.15 K, 19400 kPa | 18.62 mPa·s
338.15 K, 20500 kPa | 19.38 mPa·s
338.15 K, 31000 kPa | 23.29 mPa·s
338.15 K, 31770 kPa | 23.04 mPa·s
338.15 K, 40100 kPa | 27.24 mPa·s
338.15 K, 41110 kPa | 26.91 mPa·s
338.15 K, 50300 kPa | 32.42 mPa·s
338.15 K, 51100 kPa | 31.86 mPa·s
338.15 K, 60400 kPa | 38.31 mPa·s
338.15 K, 60510 kPa | 37.34 mPa·s
338.15 K, 70700 kPa | 45.25 mPa·s
338.15 K, 70710 kPa | 43.6 mPa·s
338.15 K, 80200 kPa | 52.53 mPa·s
338.15 K, 80970 kPa | 51.73 mPa·s
348.15 K, 100 kPa | 9.71 mPa·s
348.15 K, 9800 kPa | 11.47 mPa·s
348.15 K, 20600 kPa | 13.71 mPa·s
348.15 K, 30230 kPa | 15.96 mPa·s
348.15 K, 31300 kPa | 16.34 mPa·s
348.15 K, 40810 kPa | 18.91 mPa·s
348.15 K, 50600 kPa | 22.15 mPa·s
348.15 K, 50710 kPa | 22.05 mPa·s
348.15 K, 61220 kPa | 25.89 mPa·s
348.15 K, 69800 kPa | 29.77 mPa·s
348.15 K, 72330 kPa | 30.55 mPa·s
348.15 K, 85770 kPa | 37.23 mPa·s

CC(C)CCCC(C)CCCC(C)CCCCC(C)CCCC(C)CCCC(C)C (stereo not drawn) [2,6,10,15,19,23-hexamethyltetracosane]
Conditions | viscosity
273.15 K, 100 kPa | 116 mPa·s and 116.2 mPa·s
273.15 K, 600 kPa | 121.9 mPa·s
273.15 K, 10600 kPa | 159.6 mPa·s
273.15 K, 20600 kPa | 208 mPa·s
273.15 K, 30700 kPa | 267.6 mPa·s
273.15 K, 41400 kPa | 348.4 mPa·s
273.15 K, 50500 kPa | 442.3 mPa·s
283.15 K, 100 kPa | 59.25 mPa·s and 59.27 mPa·s
283.15 K, 9600 kPa | 76.31 mPa·s
283.15 K, 19900 kPa | 97.69 mPa·s
283.15 K, 25810 kPa | 115.2 mPa·s
283.15 K, 50880 kPa | 206.5 mPa·s
283.15 K, 76760 kPa | 360.6 mPa·s
283.15 K, 100400 kPa | 573.5 mPa·s
293.15 K, 100 kPa | 35.97 mPa·s and 35.96 mPa·s
298.15 K, 100 kPa | 28.45 mPa·s [middle of 6 runs]
298.15 K, 700 kPa | 28.57 mPa·s
298.15 K, 800 kPa | 28.67 mPa·s
298.15 K, 10800 kPa | 35.77 mPa·s
298.15 K, 20600 kPa | 44.2 mPa·s
298.15 K, 26000 kPa | 49.37 mPa·s
298.15 K, 30800 kPa | 54.49 mPa·s
298.15 K, 40200 kPa | 65.84 mPa·s
298.15 K, 50100 kPa | 80.08 mPa·s
298.15 K, 50600 kPa | 81.24 mPa·s
298.15 K, 51600 kPa | 84.03 mPa·s
298.15 K, 60700 kPa | 98.21 mPa·s
298.15 K, 70700 kPa | 118.8 mPa·s
298.15 K, 74700 kPa | 129.5 mPa·s
298.15 K, 75800 kPa | 130.3 mPa·s
298.15 K, 80500 kPa | 142.3 mPa·s
298.15 K, 98800 kPa | 200.7 mPa·s
298.15 K, 100100 kPa | 201.8 mPa·s
298.15 K, 125900 kPa | 315.8 mPa·s
298.15 K, 150000 kPa | 465.7 mPa·s
298.15 K, 150100 kPa | 473.5 mPa·s
303.15 K, 100 kPa | 22.58 mPa·s and 22.86 mPa·s and 22.84 mPa·s
313.15 K, 100 kPa | 15.16 mPa·s [middle of 6 runs]
313.15 K, 800 kPa | 15.15 mPa·s
313.15 K, 10700 kPa | 18.58 mPa·s
313.15 K, 20600 kPa | 22.64 mPa·s
313.15 K, 30700 kPa | 27.33 mPa·s
313.15 K, 40500 kPa | 32.69 mPa·s
313.15 K, 50200 kPa | 39.01 mPa·s
313.15 K, 60600 kPa | 46.76 mPa·s
313.15 K, 70600 kPa | 55.53 mPa·s
313.15 K, 80600 kPa | 65.68 mPa·s
313.15 K, 91700 kPa | 78.58 mPa·s
313.15 K, 112400 kPa | 108.9 mPa·s
313.15 K, 131700 kPa | 145.3 mPa·s
313.15 K, 151600 kPa | 192.8 mPa·s
313.15 K, 151900 kPa | 196.8 mPa·s
313.15 K, 168600 kPa | 250 mPa·s
313.15 K, 175400 kPa | 276.7 mPa·s
313.15 K, 190000 kPa | 336.9 mPa·s
313.15 K, 190100 kPa | 340.1 mPa·s
313.15 K, 199800 kPa | 379.2 mPa·s
313.15 K, 210400 kPa | 433.8 mPa·s
313.15 K, 227900 kPa | 549.9 mPa·s
313.15 K, 241700 kPa | 669.3 mPa·s
313.15 K, 261500 kPa | 863.8 mPa·s
313.15 K, 279800 kPa | 1065 mPa·s
313.15 K, 300500 kPa | 1395 mPa·s
323.15 K, 100 kPa | 10.73 mPa·s and 10.71 mPa·s and 10.69 mPa·s
333.15 K, 100 kPa | 7.856 mPa·s and 7.861 mPa·s
338.15 K, 100 kPa | 6.785 mPa·s
338.15 K, 9700 kPa | 8.064 mPa·s
338.15 K, 22100 kPa | 9.958 mPa·s
338.15 K, 30100 kPa | 11.36 mPa·s
338.15 K, 40600 kPa | 13.4 mPa·s
338.15 K, 40800 kPa | 13.45 mPa·s
338.15 K, 50300 kPa | 15.55 mPa·s
338.15 K, 60000 kPa | 17.98 mPa·s
338.15 K, 60700 kPa | 17.92 mPa·s
338.15 K, 80700 kPa | 24.24 mPa·s
338.15 K, 100600 kPa | 32.02 mPa·s
338.15 K, 120400 kPa | 41.62 mPa·s
338.15 K, 140400 kPa | 53.67 mPa·s
338.15 K, 160300 kPa | 69.03 mPa·s
338.15 K, 175300 kPa | 82.43 mPa·s
338.15 K, 199800 kPa | 111 mPa·s
338.15 K, 226500 kPa | 150.6 mPa·s
338.15 K, 246000 kPa | 184.6 mPa·s
338.15 K, 255100 kPa | 201.5 mPa·s
338.15 K, 274800 kPa | 252.5 mPa·s
338.15 K, 275200 kPa | 246.9 mPa·s
338.15 K, 300000 kPa | 321.5 mPa·s
338.15 K, 303600 kPa | 337.4 mPa·s
338.15 K, 324900 kPa | 416.3 mPa·s
338.15 K, 350600 kPa | 540.2 mPa·s
338.15 K, 373000 kPa | 677.2 mPa·s
343.15 K, 100 kPa | 5.979 mPa·s [middle of 4 runs]
348.15 K, 100 kPa | 5.281 mPa·s and 5.28 mPa·s and 5.248 mPa·s
348.15 K, 9700 kPa | 6.195 mPa·s
348.15 K, 20600 kPa | 7.41 mPa·s
348.15 K, 30800 kPa | 8.689 mPa·s
348.15 K, 40900 kPa | 10.14 mPa·s
348.15 K, 50400 kPa | 11.63 mPa·s
348.15 K, 60400 kPa | 13.25 mPa·s
348.15 K, 60500 kPa | 13.45 mPa·s
348.15 K, 70300 kPa | 15.23 mPa·s
348.15 K, 70900 kPa | 15.5 mPa·s
348.15 K, 80100 kPa | 17.89 mPa·s
348.15 K, 80300 kPa | 17.39 mPa·s
348.15 K, 90300 kPa | 19.95 mPa·s
348.15 K, 90600 kPa | 20.48 mPa·s
348.15 K, 100100 kPa | 22.65 mPa·s
348.15 K, 100800 kPa | 23.18 mPa·s
348.15 K, 200500 kPa | 71.69 mPa·s
348.15 K, 225500 kPa | 93.81 mPa·s
348.15 K, 250300 kPa | 121.8 mPa·s
348.15 K, 275300 kPa | 157.1 mPa·s
348.15 K, 300000 kPa | 201.5 mPa·s
348.15 K, 319700 kPa | 244.4 mPa·s
348.15 K, 339600 kPa | 295.8 mPa·s
348.15 K, 359000 kPa | 356.2 mPa·s
348.15 K, 378600 kPa | 428.5 mPa·s
353.15 K, 100 kPa | 4.692 mPa·s and 4.695 mPa·s

Conditions | mass density [kg/m3]
273.15 K | 821.58
283.15 K | 815.16
288.15 K | 811.95
293.15 K | 808.74
298.15 K | 805.55
303.15 K | 802.34
313.15 K | 795.93
323.15 K | 789.53
333.15 K | 783.14
343.15 K | 776.77
353.15 K | 770.42
363.15 K | 764.06
